Data from patent US6706664B1, “Benzoxazole compounds, process for the preparation thereof and herbicides” (UBE Industries, Ltd., priority 1999, dated 2004).

Key:
Set-up in all cases: key: 0: normal development; 1: Less damaged; 2: Slightly damaged; 3: Moderately damaged; 4: Severely damaged; 5: All killed
sugar beat = experiment: Foliar spread test for upland field; type: in vivo; conditions: foliar spray 500 ppm, 3 weeks, rank vs non-treated
How it was run: (§1)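 Scoring used a 0–5 scale, where 0 meant normal development and 5 meant all plants killed, assessed 3 weeks after treatment. Plants had been grown about 2 weeks from seed in volcanic ash soil before a uniform spray at 500 ppm containing 0.5% surfactant.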

solgum = experiment: Foliar spread test for upland field; type: in vivo; conditions: foliar spray 500 ppm, 3 weeks, rank vs non-treated
How it was run: as §1

wheat [1] = experiment: Foliar spread test for upland field; type: in vivo; conditions: foliar spray 500 ppm, 3 weeks, rank vs non-treated
How it was run: as §1

corn [2] = experiment: Foliar spread test for upland field; type: in vivo; conditions: foliar spray 500 ppm, 3 weeks, rank vs non-treated
How it was run: as §1

livid amaranth [3] = experiment: Foliar spread test for upland field; type: in vivo, Amaranthus lividus; conditions: foliar spray 500 ppm, 3 weeks, rank vs non-treated
How it was run: as §1

velvetleaf [4] = experiment: Foliar spread test for upland field; type: in vivo, Abutilon theophrasti; conditions: foliar spray 500 ppm, 3 weeks, rank vs non-treated
How it was run: as §1

wheat [5] = experiment: Soil treatment test for upland field; type: in vivo; conditions: 500 g/ha, glass house 25° C., 3 weeks
How it was run: (§2)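 Damage rated on a 0–5 scale (0 normal development, 5 all killed) after 3 weeks in a glasshouse at about 25 °C. Compounds applied as a water-diluted wettable powder (0.05% surfactant) sprayed at 500 g/ha onto soil surface over freshly sown seeds in alluvial Ube soil.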

cotton = experiment: Soil treatment test for upland field; type: in vivo; conditions: 500 g/ha, glass house 25° C., 3 weeks
How it was run: as §2

corn [6] = experiment: Soil treatment test for upland field; type: in vivo; conditions: 500 g/ha, glass house 25° C., 3 weeks
How it was run: as §2

barnyardgrass [7] = experiment: Soil treatment test for upland field; type: in vivo, Echinochloa crusgalli; conditions: 500 g/ha, glass house 25° C., 3 weeks
How it was run: as §2

young rice plant = experiment: Herbicidal test for paddy field; type: in vivo; conditions: paddy field pot, 500 g/ha dropwise at 1.5 leaf stage of barnyardgrass, 3 weeks, rank vs non-treated
How it was run: (§3)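 Scores run on a six-point scale from 0 for normal development to 5 for all plants killed, judged against non-treated pots. Plants were grown in Ube soil under 3 cm of standing water and treated by pipet with 500 g/ha of the compound once barnyardgrass had 1.5 leaves. Assessment followed 3 weeks in a glasshouse averaging 25° C.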

velvetleaf [8] = experiment: Soil treatment test for upland field; type: in vivo, Abutilon theophrasti; conditions: 500 g/ha, glass house 25° C., 3 weeks
How it was run: as §2

green foxtail = experiment: Soil treatment test for upland field; type: in vivo, Setaria viridis; conditions: 500 g/ha, glass house 25° C., 3 weeks
How it was run: as §2

common lambsquartes [9] = experiment: Soil treatment test for upland field; type: in vivo, Chenopodium album; conditions: 500 g/ha, glass house 25° C., 3 weeks
How it was run: as §2

monochoria = experiment: Herbicidal test for paddy field; type: in vivo, Monochoria vaginalis; conditions: paddy field pot, 500 g/ha dropwise at 1.5 leaf stage of barnyardgrass, 3 weeks, rank vs non-treated
How it was run: as §3

livid amaranth [10] = experiment: Soil treatment test for upland field; type: in vivo, Amaranthus lividus; conditions: 500 g/ha, glass house 25° C., 3 weeks
How it was run: as §2

blackgrass = experiment: Foliar spread test for upland field; type: in vivo, Alopecurus aegualis; conditions: foliar spray 500 ppm, 3 weeks, rank vs non-treated
How it was run: as §1

barnyardgrass [11] = experiment: Herbicidal test for paddy field; type: in vivo, Echinochloa crusgalli; conditions: paddy field pot, 500 g/ha dropwise at 1.5 leaf stage of barnyardgrass, 3 weeks, rank vs non-treated
How it was run: as §3

common lambsquartes [12] = experiment: Foliar spread test for upland field; type: in vivo, Chenopodium album; conditions: foliar spray 500 ppm, 3 weeks, rank vs non-treated
How it was run: as §1

SMILES | Effects Sugar beat (sugar beat) | Effects Solgum (solgum) | Effects Wheat (wheat [1]) | Effects Corn (corn [2]) | Effects Livid amaranth (livid amaranth [3]) | Effects Velvetleaf (velvetleaf [4]) | Effects Wheat (wheat [5]) | Effects Cotton (cotton) | Effects Corn (corn [6]) | Effects Barnyardgrass (barnyardgrass [7]) | Effect Young rice plant (young rice plant) | Effects Velvetleaf (velvetleaf [8]) | Effects Green foxtail (green foxtail) | Effects Common lambsquarters (common lambsquartes [9]) | Effect Monochoria (monochoria) | Effects Livid amaranth (livid amaranth [10]) | Effects Blackgrass (blackgrass) | Effect Barnyardgrass (barnyardgrass [11]) | Effects Common lambsquarters (common lambsquartes [12])
CCC(Oc1cccc(C(F)(F)F)c1)c1nc2cc(C#N)ccc2o1 (stereo not drawn) [Compound 190] | 3 | 3 | 2 | 2 | 5 | 4 | 2 | 5 | 2 | 5 | 3 | 3 | 5 | 4 | 5 | 5 | 3 | 5 | 4
CCCC(Oc1cccc(C(F)(F)F)c1)c1nc2cc(C#N)ccc2o1 (stereo not drawn) [Compound 192] | 4 | 2 | 2 | 2 | 4 | 3 | 2 | 1 | 2 | 3 | 1 | 5 | 5 | 5 | 5 | 5 | 2 | 5 | 4
CCCC(Oc1ccc(F)c(C(F)(F)F)c1)c1nc2cc(C(F)(F)F)ccc2o1 (stereo not drawn) [Compound 199] | 3 | 1 | 1 | 2 | 4 | 4 | 0 | 2 | 1 | 2 | 1 | 5 | 5 | 5 | 5 | 5 | 2 | 4 | 4
CCCC(Oc1cccc(C(F)(F)F)c1)c1nc2cc(C(F)(F)F)ccc2o1 (stereo not drawn) [Compound 200] | 4 | 2 | 2 | 2 | 4 | 2 | 1 | 1 | 1 | 5 | 0 | 5 | 5 | 4 | 5 | 5 | 2 | 2 | 4
CCC(Oc1ccc(F)c(C(F)(F)F)c1)c1nc2cc(F)c(F)cc2o1 (stereo not drawn) [Compound 284] | 4 | 3 | 2 | 3 | 5 | 2 | 2 | 1 | 2 | 5 | 2 | 5 | 5 | 4 | 5 | 5 | 2 | 4 | 4
CCC(Oc1cccc(C(F)(F)F)c1)c1nc2cc(C#N)c(C#N)cc2o1 (stereo not drawn) [Compound 315] | 5 | 2 | 2 | 1 | 5 | 4 | 1 | 1 | 2 | 4 | 1 | 5 | 5 | 4 | 4 | 5 | 2 | 3 | 5
CCCC(Oc1cccc(C(F)(F)F)c1)c1nc2cc(C#N)c(C#N)cc2o1 (stereo not drawn) [Compound 317] | 5 | 1 | 2 | 2 | 5 | 3 | 1 | 0 | 2 | 3 | 1 | 5 | 5 | 5 | 5 | 5 | 2 | 3 | 5
CCC(Oc1cccc(C(F)(F)F)c1)c1nc2cc(Cl)c(C)cc2o1 (stereo not drawn) [Compound 339, 1-(5-chloro-6-methylbenzoxazol-2-yl)-1-(3-(trifluoromethyl)phenoxy)propane] | 3 | 1 | 1 | 2 | 4 | 2 | 1 | 0 | 1 | 3 | 1 | 4 | 5 | 4 | 5 | 5 | 2 | 4 | 4
CCC(Oc1ccc(F)c(C(F)(F)F)c1)c1nc2cc(Cl)c(C)cc2o1 (stereo not drawn) [Compound 340] | 3 | 2 | 2 | 2 | 4 | 4 | 1 | 0 | 2 | 4 | 0 | 5 | 5 | 5 | 5 | 5 | 2 | 5 | 4
